Experimental findings from US11795204B2 (Zealand Pharma A/S, priority 2012, dated 2023) are described below.

pEC50: −log10 of the molar value. Square brackets hold non-standard residues; d marks the D form. Peptide text beside a SMILES is read from it. Dab = NCC[C@H](N)C(=O)O; Dap = NC[C@H](N)C(=O)O; Aib = CC(C)(N)C(=O)O

One data set has as its target T1, human Glucagon-R (Homo sapiens, UniProt P47871).
T1 construct: expressed in transfected cells
Description: Glucagon receptor assay (cAMP induction, AlphaScreen). The class given is cell-based. The following applies: HEK293 cells expressing the human Glucagon-R, 15 min at 37° C., read-out: GCG-R EC50 in vitro. Here is the method: The 5′-end primers additionally encoded a near-Kozak consensus sequence to ensure efficient translation. […] 48 hr after transfection, cells were seeded for limited dilution cloning and selected with 1 mg/ml G418 in the culture medium.
On the day of analysis, growth medium was removed and the cells were washed once with […] of the included Assay buffer with IBMX. Cells were incubated in […] Assay buffer/IBMX containing increasing concentrations of test peptides for 15 min at 37° C. Then the peptides/Assay buffer was removed and cells were lysed by addition of […] Lysis buffer pr. well and incubation for at least 10 min at room temperature. From each well […] cell lysate was transferred to a 384-well OptiPlate and mixed with Donor and Acceptor beads and incubated for 1 h at room temperature. The cAMP content was measured on an Envision plate reader.
In general terms: Alpha assays give light when donor and acceptor beads are brought close together.

The next data set in a line: physchem. The following applies: pH 7.5. Here is the method: A stock solution of the test peptide (2 mg/ml; determined by measurement of the absorption of the solution at 280 nm, and using the theoretical extension coefficient based on the content of tryptophan and tyrosine in the peptide) in demineralized water adjusted to pH 2.5 with HCl was prepared, and aliquots were diluted 1:1 in 100 mM acetate buffer (pH 4.0) and 100 mM phosphate buffer (pH 7.5), respectively, and loaded in a standard flat-bottom, non-sterile 96-well UV Microplate. The absorbance of samples (single samples, n=1) at 280 and 325 nm was measured in an absorbance-based plate reader, which was preheated to ambient temperature.

By pEC50 is commonly meant the negative decadic logarithm of the EC50, by convention in mol/L. The solubility is the dissolved amount per volume that the medium holds. A higher solubility goes with a readily soluble substance.

T1 sequence (P47871 26-477): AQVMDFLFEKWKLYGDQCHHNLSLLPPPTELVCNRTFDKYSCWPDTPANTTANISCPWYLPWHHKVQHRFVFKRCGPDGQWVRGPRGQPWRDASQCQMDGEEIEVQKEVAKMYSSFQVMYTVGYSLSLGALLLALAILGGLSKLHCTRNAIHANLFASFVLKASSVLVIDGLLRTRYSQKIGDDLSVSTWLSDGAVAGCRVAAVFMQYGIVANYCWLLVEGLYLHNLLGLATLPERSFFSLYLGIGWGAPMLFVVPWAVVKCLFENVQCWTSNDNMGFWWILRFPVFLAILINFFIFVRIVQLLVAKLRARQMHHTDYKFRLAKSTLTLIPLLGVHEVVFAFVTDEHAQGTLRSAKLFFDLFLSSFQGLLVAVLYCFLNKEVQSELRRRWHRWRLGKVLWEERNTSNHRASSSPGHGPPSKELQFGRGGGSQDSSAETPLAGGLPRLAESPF

Consider `CC(C)C[C@H](NC(=O)[C@H](Cc1c[nH]c2ccccc12)NC(=O)[C@H](CO)NC(=O)[C@@H](NC(=O)[C@H](Cc1ccccc1)NC(=O)[C@H](CCC(=O)O)NC(=O)[C@H](CCC(=O)O)NC(=O)[C@H](C)NC(=O)[C@H](CCCNC(=N)N)NC(=O)[C@H](C)NC(=O)C(C)(C)NC(=O)[C@H](CC(=O)O)NC(=O)[C@H](CC(C)C)NC(=O)[C@H](Cc1ccc(O)cc1)NC(=O)[C@H](CCCCN)NC(=O)[C@H](CO)NC(=O)[C@H](Cc1ccc(O)cc1)NC(=O)[C@H](CC(=O)O)NC(=O)[C@H](CO)NC(=O)[C@@H](NC(=O)[C@H](Cc1ccccc1)NC(=O)[C@@H](NC(=O)CNC(=O)[C@H](CCC(N)=O)NC(=O)[C@H](CO)NC(=O)[C@@H](N)Cc1c[nH]cn1)[C@@H](C)O)[C@@H](C)O)C(C)C)C(=O)N[C@@H](CCC(=O)O)C(=O)N[C@@H](CCCCN)C(=O)N[C@H](C(=O)O)[C@@H](C)O` [Compound 33] (H-HSQGTFTSDYSKYLD[Aib]ARAEEFVSWLEKT-OH), for which the pEC50 at human Glucagon-R was 10.36. This molecule returned a solubility in the data set “physchem” not below 1000 µg/mL.
Taken in the same sequence, the figures for “H-HSQGTFTSDYSKYLDSARAEDFVSWLEST-OH [Compound 10]” were 9.49 and not below 1000 µg/mL.
For “H-HSQGTFTSDYSKYLDVARAESFVKWLEST-OH [Compound 19]” the same measures were 10.27 and not below 1000 µg/mL.
In the case of “H-HSQGTFTSDYSKYLDSARAESFVKWLEST-OH [Compound 1]”, the pEC50 at human Glucagon-R was 10.19. The solubility in “physchem” was not below 1000 µg/mL.
In the case of `CC(=O)NC[C@H](NC(=O)[C@H](CO)NC(=O)[C@@H](N)Cc1c[nH]cn1)C(=O)NCC(=O)N[C@H](C(=O)N[C@@H](Cc1ccccc1)C(=O)N[C@H](C(=O)N[C@@H](CO)C(=O)N[C@@H](CC(=O)O)C(=O)N[C@@H](Cc1ccc(O)cc1)C(=O)N[C@@H](CO)C(=O)N[C@@H](CCCCN)C(=O)N[C@@H](Cc1ccc(O)cc1)C(=O)N[C@@H](CC(C)C)C(=O)N[C@@H](CC(=O)O)C(=O)NC(C)(C)C(=O)N[C@@H](C)C(=O)N[C@@H](CCCNC(=N)N)C(=O)N[C@@H](C)C(=O)N[C@@H](CCC(=O)O)C(=O)N[C@@H](CCC(=O)O)C(=O)N[C@@H](Cc1ccccc1)C(=O)N[C@H](C(=O)N[C@@H](CCCCN)C(=O)N[C@@H](Cc1c[nH]c2ccccc12)C(=O)N[C@@H](CC(C)C)C(=O)N[C@@H](CCC(=O)O)C(=O)N[C@@H](CO)C(=O)N[C@H](C(N)=O)[C@@H](C)O)C(C)C)[C@@H](C)O)[C@@H](C)O` [Compound 41] (H-HS[Dap](Ac)GTFTSDYSKYLD[Aib]ARAEEFVKWLEST-NH2), on human Glucagon-R, the pEC50 was 11.42. In addition, the solubility in the data set “physchem” was not below 1000 µg/mL.
On to `CC(=O)NCC[C@H](NC(=O)[C@H](CO)NC(=O)[C@@H](N)Cc1c[nH]cn1)C(=O)NCC(=O)N[C@H](C(=O)N[C@@H](Cc1ccccc1)C(=O)N[C@H](C(=O)N[C@@H](CO)C(=O)N[C@@H](CC(=O)O)C(=O)N[C@@H](Cc1ccc(O)cc1)C(=O)N[C@@H](CO)C(=O)N[C@@H](CCCCN)C(=O)N[C@@H](Cc1ccc(O)cc1)C(=O)N[C@@H](CC(C)C)C(=O)N[C@@H](CC(=O)O)C(=O)NC(C)(C)C(=O)N[C@@H](C)C(=O)N[C@@H](CCCNC(=N)N)C(=O)N[C@@H](C)C(=O)N[C@@H](CCC(=O)O)C(=O)N[C@@H](CCC(=O)O)C(=O)N[C@@H](Cc1ccccc1)C(=O)N[C@H](C(=O)N[C@@H](CCCCN)C(=O)N[C@@H](Cc1c[nH]c2ccccc12)C(=O)N[C@@H](CC(C)C)C(=O)N[C@@H](CCC(=O)O)C(=O)N[C@@H](CO)C(=O)N[C@H](C(=O)O)[C@@H](C)O)C(C)C)[C@@H](C)O)[C@@H](C)O` [Compound 39] (H-HS[Dab](Ac)GTFTSDYSKYLD[Aib]ARAEEFVKWLEST-OH), for which the negative-log EC50 (pEC50) on human Glucagon-R was 11.36. For the same molecule, the solubility in the data set “physchem” is not below 1000 µg/mL.
